Source: article PMC10733463, “Berberine-microbiota interplay: orchestrating gut health through modulation of the gut microbiota and metabolic transformation into bioactive metabolites” (Frontiers in Pharmacology, 2023)

Columns and labels:
[1] = test system: Blautia hydrogenotrophica (DSM 10507); conditions: DSM 10507, chicken, 10 µg/mL, pH 6
Procedure: Six strains were tested for their ability to convert berberine into berberine-demethylated metabolites. […] Strains were sub-cultured overnight in M2GSC medium pH 6. The next day, caecal content from a 3-week-old broiler chicken was sampled in anaerobic conditions and 1:1,000 diluted in M2GSC medium pH 6 containing 10 μg/mL berberine. Caecal mixtures were enriched with 1:100 diluted overnight cultures of single bacteria, or with M2GSC (control), and incubated in a 24-well plate, for 48 h. […] Samples were collected and processed as described before. Each bacterial strain was tested in triplicate at 37°C–40°C under anaerobic conditions.
The UPLC instrument consisted of an Acquity H-Class Quaternary Solvent Manager and an Acquity FTN Sample Manager (Waters, Berchem, Belgium). For chromatographic separation, an Acquity UPLC® HSS T3 column (1.8 µm, 100 mm × 2.1 mm i.d.) was used, protected by a precolumn of the same type (VanGuardTM, 5 mm × 2.1 mm i.d.), both from Waters. […] The column temperature was maintained at 25°C. The autosampler temperature was set at 10°C. The UPLC effluent was sent from 1.2 min to 9.5 min by use of a divert valve to a Xevo TQ-S® triple quadrupole mass spectrometer from Water, equipped with an ESI ion source operating in the positive ionization mode from. The UPLC-MS/MS analysis was run under control of MassLynx software (v4.1), which was used for subsequent data processing as well. For the injection of 1/5 diluted intestinal content samples (see section Preparation of intestinal content samples (ileum and caecum)), the divert valve was used in addition from 7.1 min to 8.4 min to deviate the high amount of berberine and associated IS berberine-d6 eluting in that time window from the UPLC column directly to the waste, rather than to the MS detector to avoid oversaturation of the instrument, influencing subsequent sample extract injections at well. Operating conditions for the ESI source used in the positive ionization mode were optimized by direct infusion of all individual components in combination with the mobile phase at 50% A/50% B delivered at a flow rate of 0.3 mL/min. The following tune parameters were used for detection of all components: capillary voltage, 3 kV, cone voltage, 10 V, source offset, 50 V, source temperature, 150°C, desolvation temperature, 500°C, desolvation gas flow, 800 L/h, cone gas flow, 150 L/h, collision gas flow, 0.2 mL/min, ion energy 1 and 2, 0.5, LM 1 and LM 2 resolution, 3, HM 1 and HM 2 resolution, 15. Components were detected in MS/MS mode using component specific MRM (Multiple Reaction Monitoring) transitions (Supplementary Table S1). Since a commercial standard of thalifendine was not available, MS/MS detection parameters and calibration of berberrubine were used for the detection and quantification of thalifendine, which is a reasonable approach, since both compounds are isomers. No commercial reference standards were available for phase II metabolites, therefore “calculated” MRM transitions were defined as follows: [M + -Gluc] > M+ for glucuronide forms and [M + -SO3] > M+ for sulfate forms, where the loss of glucuronic acid or sulfate corresponded to a mass shift of 176 Da or 80 Da respectively. Phase II metabolites were quantified relatively using the berberine calibration curve ([Wang et al., 2017a]; [Kwon et al., 2020]).

[2] = UPLC-MS/MS quantification of berberine and metabolites in ileal and caecal content; type: in vivo, Ross 308 broiler chickens; conditions: 21 days

Row | SMILES | Log2(fold change) of metabolite response at 48 h, culture with bacteria over control (berberine-medium + microbiota) [1] | Ratio caecum / ileum (concentration) ([2]; 0.1 g berberine/kg feed) | Ratio caecum / ileum (concentration) ([2]; 0.5 g berberine/kg feed) | Ratio caecum / ileum (concentration) ([2]; 1 g berberine/kg feed)
1 | COc1ccc2cc3[n+](cc2c1O)CCc1cc2c(cc1-3)OCO2 [Berberrubine, berberrubine chloride] | -0.10 | 21.43 | 29.98 | 63.80
2 | COc1cc2c(cc1O)CC[n+]1cc3c(OC)c(OC)ccc3cc1-2 [Jatrorrhizine, Jatrorrhizine chloride] | 0.03 | 0.31 | 0.49 | 0.72
3 | COc1ccc2cc3[n+](cc2c1OC)CCc1cc2c(cc1-3)OCO2 [Berberine, Berberine chloride] | – | 0.07 | 0.14 | 0.22
